Reference: US7456179B2, “Methods of treating ischemic related conditions” (priority 2003, dated 2008)
Entries after “also recorded” stand apart in the source; their conditions may differ. Read-outs that look alike come from different tables or passages of the source.

Assays:
[1] = test system: Primary cortical neurons; experiment: H2O2-induced oxidative stress (150 μM), MTS assay, comparison with known neuroprotectants; assay type: cell-based, rat; settings: 24 h pre-treatment, then harsh H2O2 treatment (150 μM)
Experimental: Primary cortical neurons were isolated from a 17 day old rat embryonic brain and seeded on 96-well plate at 50,000 cells/well in regular neurobasal medium for 2-3 week. Twice, half the amount of medium was replaced with fresh neurobasal medium containing no antioxidants. […] Other known neuroprotectants were dissolved in the proper solvent and diluted into final concentration as indicated. […] Each assay was performed in triplicate. After 24 hours, the cultures were evaluated for viability and mitochondrial function using a standard MTS Assay (Promega). The manufacturer's protocols were followed. Experiments were carried out following the procedures described in the Study Design described above. PAN-811 was dissolved in EtOH at 1 mg/ml (˜5 mM), and further diluted in neurobasal medium to final concentration at 0.1 μM, 1 μM, and 10 μM. Lipoic acid was dissolved in EtOH at concentration 240 mM, and further diluted in the neurobasal medium to final concentration at 10 uM, 25 uM, 50 uM and 100 uM. Vitamin E dissolved in EtOH at concentration 100 mM, and further diluted in the neurobasal medium to final concentration at 50 uM, 100 uM, 200 uM and 400 uM. Ginkgo Biloba was dissolved in dH2O at concentration 6 mg/ml, and further diluted in the neurobasal medium to final concentration at 2.5 ug/ml, 5 ug/ml, 25 ug/ml, 250 ug/ml. At the end of the treatment, the medium was replaced with 100 μl fresh pre-warmed neurobasal medium plus B27 (-AO). The plates were returned to the incubator at 37° C. with 5% CO2 for one hour. Subsequently 20 μl MTS reagent was added to each well and plates were incubated at 37° C. with 5% CO2 for an additional two hours. The absorbance at 490 nm for each well was recorded with the BioRad plate reader (Model 550). Wells containing medium alone were used as blanks. Each data point is the average of three separate assay wells. […] Two weeks old primary cultures were used for this set of study. Please see FIG. 1 for results.

[2] = test system: Cortical neurons; settings: for protection from neuronal cell death (morphology): 5 μM, hypoxia, FIG. 4
Experimental: (§1) Experiments were performed in a 96-well plate format. Cortical neurons were seeded at a density of 50,000 cells/well on poly-D-lysine coated surface, and cultured in serum-free medium (NB plus B27 supplement) to obtain cultures high-enriched for neurons. Neurons were cultured for over 14 d.i.v. to increase cell susceptibility to excitatory amino acids (Jiang et al., 2001). Six replicate wells were treated as a group to facilitate assay quantitation.
(§2) To mimic the cerebral environments of a stroke, we established 3 in vitro model systems. The extreme H/H model (0.4 mM glucose) is a mimic of the environment in the central core of an infarct; the mild H/H model (1.63 mM glucose) is a mimic of the environment in the penumbra during MCAO; and the hypoxia only model (neurons in normal in vitro glucose concentration—25 mM) is a mimic of the environment in the penumbra after reperfusion since the possible cell death after reperfusion is predominantly a result of the hypoxic effect rather then energy failure.
(§3) Hypoxia/hypoglycemia was obtained by reducing glucose concentration down to 0.4 mM and 1.63 mM for extreme H/H and mild H/H respectively. BSS (116.0 mM NaCl, 5.4 mM KCl, 0.8 mM MgSO4.7H2O, 1.0 mM NaH2PO4, 1.8 mM CaCl2.2H2O, 26.2 mM NaHCO3, and 0.01 mM Glycine) or BSS with 25 mM glucose were de-gassed for 5 minutes prior to use. Culture medium in the plates for hypoxia was replaced with BSS or BSS with glucose. Meanwhile, culture medium in the plates for normoxia was replaced with non de-gassed BSS or BSS with glucose. Cells were committed to hypoxic conditions by transferring the plates into a sealed container (Modular Incubator Chamber-101TM, Billups-Rothenberg, Inc.), applying a vacuum for 20 minutes to remove O2 or other gases from the culture medium, and then refilling the chamber with 5% CO2 and 95% N2 at a pressure of 30 psi for 1 minute. The level of O2 in the chamber was determined to be zero with an O2 indicator (FYRITE Gas Analyzer, Bacharach, Inc.). Culture plates were maintained in the chamber for 6 hours. As an experimental control, duplicate culture plates were maintained under normal culture condition (5% CO2 and 95% ambient air) for the same duration. After a 6-hour treatment plates were removed from the chamber and the medium in both the hypoxic and normoxic cultures was replaced with a termination solution (DMEM supplemented with 1× sodium pyruvate, 10.0 mM HEPES, and 1×N2 supplement) containing 25 mM glucose and cultured in 5% CO2 and 95% ambient air conditions. […] MK801 was utilized as a positive control. Mitochondrial function and cell death were evaluated at 24 or 48 hours post H/H insult with the MTS and LDH analyses (see below).
Treatment with drug was continued during and subsequent to a 24-hour period of hypoxia. Cellular morphology and function (MTS and LDH assays) were measured 24 or 48 hours subsequent to the hypoxic insult.
(§4) The MTS assay is a colorimetric assay that measures the mitochondrial function in metabolically active cells. This measurement indirectly reflects cell viability. […] 20 μl of MTS reagent (Promega) are added to each well of the 96 well assay plates containing the samples in 100 μl of culture medium. The plate is then incubated in a humidified, 5% CO2 atmosphere at 37° C. for 1-2 hours until the color is fully developed. The absorbance at 490 nm was recorded using a Bio-Rad 96 well plate reader.
Lactate dehydrogenase (LDH) assay is based on the reduction of NAD by the action of LDH.

[3] = test system: Primary cortical neurons; experiment: H2O2-induced oxidative stress (60-70 μM), MTS assay; assay type: cell-based, rat; settings: 1-10 μM, 24 h pre-treatment, then 60-70 μM H2O2, MTS
Experimental: Primary cortical neurons were isolated from a 17 day old rat embryonic brain and seeded on 96-well plate at 50,000 cells/well in regular neurobasal medium for 2-3 week. Twice, half amount of medium was replaced with fresh neurobasal medium containing no antioxidants. […] Each assay was performed in triplicate. […] After 24 hours, the cultures were evaluated for viability and mitochondrial function using a standard MTS Assay (Promega). The manufacturer's protocols were followed. Experiments were carried out following the procedures described in the study design. At the end of the treatment, all treatments and medium were replaced with 100 μl fresh pre-warmed neurobasal medium plus B27 (-AO). The plates were put back into the incubator at 37° C. with 5% CO2 for one hour, then 20 μl MTS reagent was added to each well and plates were incubated at 37° C. with 5% CO2 for an additional two hours. The absorbance at 490 nm for each well was recorded with the BioRad plate reader (Model 550). Wells containing medium alone well was used as blanks. Each data point is the average of three separate assay wells. […] Three weeks old primary cultures were used for this set of study. Please see FIG. 10 for results. Experiments were carried out following the same procedures as experiment 1.

[4] = test system: enriched neuronal cultures (cerebellar tissue); experiment: Neurotoxicity of PAN-811, MTT assay; settings: 24 hrs
Experimental: Neuronal culture. Enriched neuronal cultures were prepared from 15-day-old Sprague-Dawley rat embryos. Using aseptic techniques, the rat embryos were removed from the uterus and placed in sterile neuronal culture medium. Using a dissecting microscope, the brain tissue was removed from each embryo, with care taken to discard the meninges and blood vessels. […] Cells were dissociated by trituration of the tissue and were plated at a density of 5×10^5 cells/well onto 48-well culture plates precoated with poly(L-lysine). […]
3.3.1.2 Neurotoxicity of PAN-811. […] Cell viability was determined in the MTT assay.
3.1.3.4 MTT Assay. […] Cell damage was quantitatively assessed using a tetrazolium salt colorimetric assay with 3-(4,5-dimethylthiazol-2-yl)-2,5-diphenyltetrazolium (MTT; Sigma Chemical Co., St. Louis, Mo.). Briefly, the dye was added to each well (final concentration, 1.5 mg/ml), cells were incubated with MTT-acidified isopropanol (0.1 N HCl in isopropanol), and the absorbance intensity (540 nm) of each sample was measured in a 96-well plate reader. Values are expressed relative to vehicle-treated control cells that were maintained on each plate, and the percentage change in cell viability was calculated.

[5] = test system: enriched neuronal cultures (cerebellar tissue); experiment: In vitro models of excitotoxicity (H/H, glutamate, staurosporine, veratridine), MTT assay; settings: MTT 24 hrs after insult
Experimental: Neuronal culture. Enriched neuronal cultures were prepared from 15-day-old Sprague-Dawley rat embryos. Using aseptic techniques, the rat embryos were removed from the uterus and placed in sterile neuronal culture medium. Using a dissecting microscope, the brain tissue was removed from each embryo, with care taken to discard the meninges and blood vessels. […] Cells were dissociated by trituration of the tissue and were plated at a density of 5×10^5 cells/well onto 48-well culture plates precoated with poly(L-lysine). Cultures were maintained in a medium containing equal parts of Eagle's basal medium (without glutamine) and Ham's F-12k medium supplemented with 10% heat-inactivated horse serum, 10% fetal bovine serum, 600 μg/ml glucose, 100 μg/ml glutamine, 50 U/ml penicillin, and 50 μg/ml streptomycin. After 48 h, 10 μM cytosine arabinoside was added to inhibit non-neuronal cell division. Cells were used in experiments after 7 days in culture.
Four in vitro models of excitotoxicity were studied. Cells were either exposed to H/H conditions for 3 hrs or treated for 45 min with either glutamate (100 μM), staurosporine (1 μM) or veratridine (10 μM). All cells were cotreated with or without PAN-811 (10 μM) in Locke's solution. At the conclusion of the respective excitotoxic exposures, the condition medium (original) was replaced. H/H was induced by incubating the cells in a humidified airtight chamber saturated with 95% nitrogen, 5% CO2 gas for 3 hrs. in Locke's solution without added glucose.
24 hrs. after the excitotoxic insult cell viability assessments were made. Cell damage was quantitatively assessed using a tetrazolium salt colorimetric assay with 3-(4,5-dimethylthiazol-2-yl)-2,5-diphenyltetrazolium (MTT; Sigma Chemical Co., St. Louis, Mo.). Briefly, the dye was added to each well (final concentration, 1.5 mg/ml), cells were incubated with MTT-acidified isopropanol (0.1 N HCl in isopropanol), and the absorbance intensity (540 nm) of each sample was measured in a 96-well plate reader. Values are expressed relative to vehicle-treated control cells that were maintained on each plate, and the percentage change in cell viability was calculated.

[6] = test system: Cortical neurons; settings: for protection from mild H/H: pre-treatment 24 h, H/H 6 h
Experimental: as §1, §2, §3, §4
Lactate dehydrogenase (LDH) assay is based on the reduction of NAD by the action of LDH. The resulting reduced NAD (NADH) is utilized in the stoichiometric conversion of a tetrazolium dye. If cell-free aliquots of medium from cultures given different treatments are assayed, then the amount of LDH activity can be used as an indicator of relative cell death as well as a function of membrane integrity. A 50 μl aliquot of culture medium from a well in tested 96-well plate is transferred into a well in unused plate and supplemented with 25 μl of equally-mixed Substrate, Enzyme and Dye Solutions (Sigma).

[7] = test system: male Sprague-Dawley rats, MCAO
[8] = test system: Cortical neurons; experiment: Extreme hypoxia/hypoglycemia (H/H) model (0.4 mM glucose)
Experimental: as §1
To mimic the cerebral environments of a stroke, we established 3 in vitro model systems. […]
Hypoxia/hypoglycemia was obtained by reducing glucose concentration down to 0.4 mM and 1.63 mM for extreme H/H and mild H/H respectively. […] The level of O2 in the chamber was determined to be zero with an O2 indicator (FYRITE Gas Analyzer, Bacharach, Inc.). […] Mitochondrial function and cell death were evaluated at 24 or 48 hours post H/H insult with the MTS and LDH analyses (see below).
The MTS assay is a colorimetric assay that measures the mitochondrial function in metabolically active cells. […] The absorbance at 490 nm was recorded using a Bio-Rad 96 well plate reader. […]

[9] = Solubility of PAN-811 in solvents; settings: PEG-300/EtOH (70%/30%) versus EtOH
Experimental: PAN-811 was dissolved in either EtOH or DMSO at 1 mg/ml (˜5 mM), in PEG-300/EtOH (70%/30%) at 5 mg/ml (˜25 mM), and further diluted in medium to final concentration at 1 μM, 5 μM, 20 μM and 50 μM. […] Equal volume of solvents (EtOH, DMSO, and PEG-300/EtOH) was added to cells to test the solvent effects on the assay.

[10] = test system: Primary cortical neurons; experiment: ROS generation, CM-H2DCFDA / c-DCF fluorescence; assay type: cell-based, rat; settings: at 10 μM
Experimental: Primary cortical neurons were isolated from a 17 day old rat embryonic brain and seeded in 96-well plates at 50,000 cells/well in regular neurobasal medium for 2-3 weeks. Twice, half the amount of medium was replaced with fresh neurobasal medium without antioxidants. […] Untreated cells loaded with the dye were used as controls to calculate the c-DCF fluorescence change. Each assay was performed in triplicate. Experiments were carried out following the procedures described in the Study Design described above. The c-DCF fluorescence at 485/520 nm (Ex/Em) for each well was recorded with the BMG polar star plate reader. Wells containing cells without dye were used as blanks. Each data point is the average of three separate assay wells. Untreated cells loaded with the dye were used as a control to calculate the c-DCF fluorescence change. Two weeks old primary cultures were used for the study.

O=C(O)CCCC[C@@H]1CCSS1 (racemic) [Lipoic acid, reference compound]
neuroprotective capacity ([1]; known neuroprotectants): minimal neuroprotective capacity

C[C@]12N[C@H](Cc3ccccc31)c1ccccc12 [MK801, reference compound]
protection from neuronal cell death (morphology) [2]: efficient protection from neuronal cell death

NC(=S)N/N=C/c1ncccc1N [PAN-811, 3-aminopyridine-2-carboxaldehyde thiosemicarbazone]
neuroprotective capacity ([1]; PAN-811 at 1-10 μM): good neuroprotective capacity; also recorded: significant neuroprotection | block of neuronal cell death and mitochondrial dysfunction ([2]; 2 μM, 24 hours prior to, during and subsequent to 24-hour hypoxia): completely blocking neuronal cell death and mitochondrial dysfunction | block of hypoxia-induced cell death ([2]; 2 μM, 48 h prior to, during 24-hour hypoxia and 48 h subsequent): completely blocked the cell death | protection from neuronal cell death (morphology) [2]: efficient protection from neuronal cell death | protection from sole hypoxia-induced neurotoxicity ([2]; at 2 μM): completely protected | neuroprotective capacity [3]: good neuroprotective capacity | neurotoxicity ([4]; concentrations up to 100 μM): only slight toxicity | maximal toxicity ([4]; highest concentration tested (100 μM)): 7.8% | protection from damage by staurosporine ([5]; 10 μM PAN-811, 1 μM staurosporine 45 min): ~47% | protection from damage by veratridine ([5]; 10 μM PAN-811, 10 μM veratridine 45 min): ~39% | protection from damage by glutamate ([5]; 10 μM PAN-811, 100 μM glutamate 45 min): ~75% | protection from damage by hypoxia/hypoglycemia ([5]; 10 μM PAN-811, 3 hour H/H): 92% | protection from mild H/H ([6]; 2 μM, Apr. 17, 2003, culture age 13 days, 48 h post H/H): 100% protected | protection from mild H/H ([6]; 2 μM, Jul. 9, 2003, culture age 13 days, 20 h post H/H): 100% protected | protection from mild H/H ([6]; 2 μM, May 2, 2003, culture age 22 days, 24 h post H/H): 100% protected | protection from mild H/H ([6]; 2 μM, May 8, 2003, culture age 42 days, 24 h post H/H): 100% protected | protection from H/H-induced mitochondria dysfunction and neuronal cell death ([6]; 5 μM, 24 hours before and during 6-hour H/H, 15-day culture, MTS and LDH 17 hours post): completely protected | protection from mild H/H ([6]; 5 μM, Jul. 25, 2003, culture age 15 days, 24 h post H/H, test range started from 5 μM): 100% protected | protection from mild H/H ([6]; 10 μM, Jul. 13, 2003, culture age 15 days, 24 h post H/H, test range started from 5 μM): 100% protected | protection from mild H/H induced neurotoxicity ([6]; at 2 μM): completely protected | protection from neuronal cell death (LDH) ([6]; treatment 24 h before 6-hour H/H only, LDH 48 hours after H/H): marginally | range of infarct volume ([7]; 1 mg/kg IV 10 minutes prior to 2 h MCAO, 24 hours after surgery): 42.36-387.08 mm^3 | mean infarct volume ([7]; 1 mg/kg IV 10 minutes prior to 2 h MCAO, 24 hours after surgery, n 14): 225.85 mm^3 | % protection (reduction in average infarct volume vs vehicle) ([7]; 1 mg/kg IV 10 minutes prior to MCAO, p<0.05): 23% | rats that died (of 7 deaths from severe stroke or SAH) ([7]; 1 mg/kg IV, 6 of the 7 deaths were vehicle rats): 1 rat | tolerability / toxicity ([7]; rat, in vivo): well tolerated and relatively non-toxic | block of extreme H/H-induced neuronal cell death ([8]; at 100 μM): only partially blocked | protection from neuronal cell death ([8]; at ≦50 μM, extreme H/H (data not shown)): did not protect neuronal cell death | solubility [9]: better solubility in PEG-300/EtOH comparing to EtOH alone | reduction of the basal level of ROS generation [10]: ~50% | reduction of H2O2-induced ROS generation ([10]; 1 h, then 300 μM H2O2 for 2 hours): ~30%

Vitamin E [reference compound]
neuroprotective capacity ([1]; known neuroprotectants): minimal neuroprotective capacity
